In US8003734B2, “Biologically tolerated low molecular weight polyethylenimines” (priority 1997, dated 2011):

Tests used:
L929 mouse fibroblasts = assay: Cytotoxicity study, MTT assay; type: cell-based
Experimental: L929 mouse fibroblasts were cultured under the standard conditions with which the skilled person is familiar. These cells were sown in 96-well cell culture plates at a density of 8000 cells/well and cultured for 24 h before they were used for toxicity experiments.
The toxicity of the polymers was determined on L929 mouse fibroblasts using the MTT assay in accordance with the method of Mosmann et al. [Mosmann, J. Immunol. Methods 65: 55-63 (1983)]. The polymer dilution series were prepared in DMEM containing 10% FCS and 2 mM glutamine and sterilized by filtration (0.2 μm, Schleicher & Schuell, Dassel). The pH and osmolarity of the solutions were corrected if required. After a pre-incubation of 24 h, the cells were treated with the polymer solutions and incubated for 1, 3, 12 and 24 h. The viability of the cells was quantified UV-photometrically by measuring the formazan concentration.
In a second series of experiments, the cells were generally only treated with the polymers for 1 h, after which they were washed and then cultured for a further 3, 12 and 24 h in PEI-free cell culture medium. The evaluation was carried out as described above.
The toxicity of the PEIs was determined in vitro on L929 mouse fibroblasts, which various standard organizations recommend as the standard cell culture model for determining the cytotoxicity and biocompatibility of polymers. […]

[1] = tested on: pig brain capillary endothelial cells; assay: In-vitro transfection of primary cultures, β-galactosidase reporter gene; type: cell-based
Experimental: The cells, which were incubated at 37° C., 95% relative atmospheric humidity and 5% CO2, were passaged twice a week, after having reached confluence, using trypsin/EGTA solution (2.5% stock solution of trypsin, 50 mM solution of ethylene glycol tetraacetic acid, PBS, pH 7.4, in a ratio of 1:1:8). Since the cells detached from the substratum in cell clusters rather than individually, a ⅛ passage was carried out in each case. Cerebral capillary endothelial cells were isolated and cultured in accordance with the method of Bowman et al. and Mischek et al. [Mischek et al., Cell. Tiss. Res. 256: 221-226 (1989)]. […]
The ECV 304 cells and 3T3 mouse fibroblasts, which were sown in 3 cm^2 Petri dishes, and the primary endothelial cells, which were sown in 6-well culture plates, were washed with PBS, pH 7.4, immediately before the experiments and provided with new, serum-supplemented medium. […] The cells were subsequently incubated for 60 hours and the luciferase or β-galactosidase activity was determined in analogy with the manufacturer's instructions. […]
The transfection efficiency of the PEI complexes was determined both with cell lines (3T3 mouse fibroblasts and the human endothelial cell line ECV304) and with primary cultures (pig brain capillary endothelial cells). […]

## polyethylenimine [LMW PEI]
L929 mouse fibroblasts
  cytotoxicity for fibroblasts as compared with that of HMW PEI: markedly reduced
[1]
  in-vitro maximum tolerable, noncytotoxic dose (MTD) of the complexes: 90 μg/10 μg of DNA
